{"source": "patent US7417156B2", "about": "“Orally active, antimalarial, anticancer, artemisinin-derived trioxane dimers” (Johns Hopkins University, priority 2002, dated 2008)", "key": {"U251": {"system": "U251", "experiment": "NCI 60 cell line panel screen (SRB)", "assay_type": "cell-based, human"}, "[1]": {"system": "chloroquine-sensitive P. falciparum (NF54)", "experiment": "Antimalarial activity in vitro, [3H]hypoxanthine incorporation", "assay_type": "cell-based", "settings": "Plasmodium falciparum, read-out: IC50"}, "MALME-3M": {"system": "MALME-3M", "experiment": "NCI 60 cell line panel screen (SRB)", "assay_type": "cell-based, human", "settings": "MALME-3M (Melanoma)"}, "KM12": {"system": "KM12", "experiment": "NCI 60 cell line panel screen (SRB)", "assay_type": "cell-based, human"}, "NCI-H460": {"system": "NCI-H460", "experiment": "NCI 60 cell line panel screen (SRB)", "assay_type": "cell-based, human"}, "60 cell line panel": {"system": "60 cell line panel", "assay_type": "cell-based"}, "MCF7": {"system": "MCF7", "experiment": "NCI 60 cell line panel screen (SRB)", "assay_type": "cell-based, human"}, "K-562": {"system": "K-562", "experiment": "NCI 60 cell line panel screen (SRB)", "assay_type": "cell-based, human"}, "HOP-92": {"system": "HOP-92", "experiment": "NCI 60 cell line panel screen (SRB)", "assay_type": "cell-based, human"}, "RPMI-8226": {"system": "RPMI-8226", "experiment": "NCI 60 cell line panel screen (SRB)", "assay_type": "cell-based, human"}, "COLO 205": {"system": "COLO 205", "experiment": "NCI 60 cell line panel screen (SRB)", "assay_type": "cell-based, human"}, "PC-3": {"system": "PC-3", "experiment": "NCI 60 cell line panel screen (SRB)", "assay_type": "cell-based, human"}, "HCT-15": {"system": "HCT-15", "experiment": "NCI 60 cell line panel screen (SRB)", "assay_type": "cell-based, human"}, "NCI-H23": {"system": "NCI-H23", "experiment": "NCI 60 cell line panel screen (SRB)", "assay_type": "cell-based, human"}, "SK-MEL-2": {"system": "SK-MEL-2", "experiment": "NCI 60 cell line panel screen (SRB)", "assay_type": "cell-based, human"}, "SK-MEL-28": {"system": "SK-MEL-28", "experiment": "NCI 60 cell line panel screen (SRB)", "assay_type": "cell-based, human"}, "SNB-75": {"system": "SNB-75", "experiment": "NCI 60 cell line panel screen (SRB)", "assay_type": "cell-based, human"}, "RXF 393": {"system": "RXF 393", "experiment": "NCI 60 cell line panel screen (SRB)", "assay_type": "cell-based, human"}, "HCT-116": {"system": "HCT-116", "experiment": "NCI 60 cell line panel screen (SRB)", "assay_type": "cell-based, human"}, "M14": {"system": "M14", "experiment": "NCI 60 cell line panel screen (SRB)", "assay_type": "cell-based, human"}, "OVCAR-8": {"system": "OVCAR-8", "experiment": "NCI 60 cell line panel screen (SRB)", "assay_type": "cell-based, human"}, "HL-60(TB)": {"system": "HL-60(TB)", "experiment": "NCI 60 cell line panel screen (SRB)", "assay_type": "cell-based, human"}}, "note": "Like-named read-outs stand apart in the source and are kept apart here."}
{"smiles": "C[C@@H]1CC[C@H]2[C@@H](C)C(=O)O[C@@H]3O[C@]4(C)CC[C@@H]1[C@]32OO4", "note": "[Artemisinin]", "values": [{"measurement": "Log10GI50", "setting": "U251; CNS Cancer, U251", "result": ">−4.00"}, {"measurement": "Log10LC50", "setting": "U251; U251 (CNS Cancer), LC50: PG=−50", "result": ">−4.00", "unit": "log10M"}, {"measurement": "Log10TGI50", "setting": "U251; U251 (CNS Cancer), TGI: PG=0", "result": ">−4.00", "unit": "log10M"}, {"measurement": "IC50", "setting": "[1]; NF54, Table I, NF54 strain", "result": "9.2 ± 1.7", "unit": "nM"}, {"measurement": "IC50", "setting": "[1]; NF54, running text b206, artemisinin", "result": 7.7, "unit": "nM"}, {"measurement": "Log10LC50", "setting": "MALME-3M; LC50: PG=−50", "result": ">−4.00", "unit": "log10M"}, {"measurement": "Log10TGI50", "setting": "MALME-3M; TGI: PG=0", "result": "−4.06", "unit": "log10M"}, {"measurement": "Log10GI50", "setting": "KM12; Colon Cancer, KM12", "result": ">−4.00"}, {"measurement": "Log10LC50", "setting": "KM12; KM12 (Colon Cancer), LC50: PG=−50", "result": ">−4.00", "unit": "log10M"}, {"measurement": "Log10TGI50", "setting": "KM12; KM12 (Colon Cancer), TGI: PG=0", "result": ">−4.00", "unit": "log10M"}, {"measurement": "Log10LC50", "setting": "NCI-H460; NCI-H460 (Non-Small Cell Lung Cancer), LC50: PG=−50", "result": ">−4.00", "unit": "log10M"}, {"measurement": "Log10TGI50", "setting": "NCI-H460; NCI-H460 (Non-Small Cell Lung Cancer), TGI: PG=0", "result": ">−4.00", "unit": "log10M"}, {"measurement": "Log10GI50", "setting": "NCI-H460; Non-Small Cell Lung Cancer, NCI-H460", "result": ">−4.00"}, {"measurement": "Log10GI50 Delta", "setting": "60 cell line panel", "result": "−4.07"}, {"measurement": "Log10GI50 Range", "setting": "60 cell line panel", "result": 0.73}, {"measurement": "Log10LC50 Delta", "setting": "60 cell line panel; 60 cell line panel", "result": "−4.00"}, {"measurement": "Log10LC50 Range", "setting": "60 cell line panel; 60 cell line panel", "result": 0.00}, {"measurement": "Log10TGI50 Delta", "setting": "60 cell line panel; 60 cell line panel", "result": "−4.00"}, {"measurement": "Log10TGI50 Range", "setting": "60 cell line panel; 60 cell line panel", "result": 0.06}, {"measurement": "Log10GI50", "setting": "MCF7; Breast Cancer, MCF7", "result": ">−4.00"}, {"measurement": "Log10LC50", "setting": "MCF7; MCF7 (Breast Cancer), LC50: PG=−50", "result": ">−4.00", "unit": "log10M"}, {"measurement": "Log10TGI50", "setting": "MCF7; MCF7 (Breast Cancer), TGI: PG=0", "result": ">−4.00", "unit": "log10M"}, {"measurement": "Log10LC50", "setting": "K-562; K-562 (Leukemia), LC50: PG=−50", "result": ">−4.00", "unit": "log10M"}, {"measurement": "Log10TGI50", "setting": "K-562; K-562 (Leukemia), TGI: PG=0", "result": ">−4.00", "unit": "log10M"}, {"measurement": "Log10GI50", "setting": "K-562; Leukemia, K-562", "result": "−4.33"}, {"measurement": "Log10LC50", "setting": "HOP-92; HOP-92 (Non-Small Cell Lung Cancer), LC50: PG=−50", "result": ">−4.00", "unit": "log10M"}, {"measurement": "Log10TGI50", "setting": "HOP-92; HOP-92 (Non-Small Cell Lung Cancer), TGI: PG=0", "result": ">−4.00", "unit": "log10M"}, {"measurement": "Log10GI50", "setting": "HOP-92; Non-Small Cell Lung Cancer, HOP-92", "result": ">−4.00"}, {"measurement": "Log10GI50", "setting": "RPMI-8226; Leukemia, RPMI-8226", "result": ">−4.00"}, {"measurement": "Log10LC50", "setting": "RPMI-8226; RPMI-8226 (Leukemia), LC50: PG=−50", "result": ">−4.00", "unit": "log10M"}, {"measurement": "Log10TGI50", "setting": "RPMI-8226; RPMI-8226 (Leukemia), TGI: PG=0", "result": ">−4.00", "unit": "log10M"}, {"measurement": "Log10LC50", "setting": "COLO 205; COLO 205 (Colon Cancer), LC50: PG=−50", "result": ">−4.00", "unit": "log10M"}, {"measurement": "Log10TGI50", "setting": "COLO 205; COLO 205 (Colon Cancer), TGI: PG=0", "result": ">−4.00", "unit": "log10M"}, {"measurement": "Log10GI50", "setting": "COLO 205; Colon Cancer, COLO 205", "result": ">−4.00"}, {"measurement": "Log10LC50", "setting": "PC-3; PC-3 (Prostate Cancer), LC50: PG=−50", "result": ">−4.00", "unit": "log10M"}, {"measurement": "Log10TGI50", "setting": "PC-3; PC-3 (Prostate Cancer), TGI: PG=0", "result": "−4.00", "unit": "log10M"}, {"measurement": "Log10GI50", "setting": "PC-3; Prostate Cancer, PC-3", "result": "−4.17"}, {"measurement": "Log10GI50", "setting": "HCT-15; Colon Cancer, HCT-15", "result": ">−4.00"}, {"measurement": "Log10LC50", "setting": "HCT-15; HCT-15 (Colon Cancer), LC50: PG=−50", "result": ">−4.00", "unit": "log10M"}, {"measurement": "Log10TGI50", "setting": "HCT-15; HCT-15 (Colon Cancer), TGI: PG=0", "result": ">−4.00", "unit": "log10M"}, {"measurement": "Log10LC50", "setting": "NCI-H23; NCI-H23 (Non-Small Cell Lung Cancer), LC50: PG=−50", "result": ">−4.00", "unit": "log10M"}, {"measurement": "Log10TGI50", "setting": "NCI-H23; NCI-H23 (Non-Small Cell Lung Cancer), TGI: PG=0", "result": ">−4.00", "unit": "log10M"}, {"measurement": "Log10GI50", "setting": "NCI-H23; Non-Small Cell Lung Cancer, NCI-H23", "result": ">−4.00"}, {"measurement": "Log10LC50", "setting": "SK-MEL-2; SK-MEL2 (Melanoma), LC50: PG=−50", "result": ">−4.00", "unit": "log10M"}, {"measurement": "Log10TGI50", "setting": "SK-MEL-2; SK-MEL-2 (Melanoma), TGI: PG=0", "result": ">−4.00", "unit": "log10M"}, {"measurement": "Log10GI50", "setting": "SK-MEL-28; Melanoma, SK-MEL-28", "result": ">−4.00"}, {"measurement": "Log10LC50", "setting": "SK-MEL-28; SK-MEL-28 (Melanoma), LC50: PG=−50", "result": ">−4.00", "unit": "log10M"}, {"measurement": "Log10TGI50", "setting": "SK-MEL-28; SK-MEL-28 (Melanoma), TGI: PG=0", "result": ">−4.00", "unit": "log10M"}, {"measurement": "Log10GI50", "setting": "SNB-75; CNS Cancer, SNB-75", "result": ">−4.00"}, {"measurement": "Log10LC50", "setting": "SNB-75; SNB-75 (CNS Cancer), LC50: PG=−50", "result": ">−4.00", "unit": "log10M"}, {"measurement": "Log10TGI50", "setting": "SNB-75; SNB-75 (CNS Cancer), TGI: PG=0", "result": ">−4.00", "unit": "log10M"}, {"measurement": "Log10LC50", "setting": "RXF 393; RXF 393 (Renal Cancer), LC50: PG=−50", "result": ">−4.00", "unit": "log10M"}, {"measurement": "Log10TGI50", "setting": "RXF 393; RXF 393 (Renal Cancer), TGI: PG=0", "result": ">−4.00", "unit": "log10M"}, {"measurement": "Log10GI50", "setting": "RXF 393; Renal Cancer, RXF 393", "result": "−4.08"}, {"measurement": "Log10GI50", "setting": "HCT-116; Colon Cancer, HCT-116", "result": "−4.18"}, {"measurement": "Log10LC50", "setting": "HCT-116; HCT-116 (Colon Cancer), LC50: PG=−50", "result": ">−4.00", "unit": "log10M"}, {"measurement": "Log10TGI50", "setting": "HCT-116; HCT-116 (Colon Cancer), TGI: PG=0", "result": ">−4.00", "unit": "log10M"}, {"measurement": "Log10LC50", "setting": "M14; M14 (Melanoma), LC50: PG=−50", "result": ">−4.00", "unit": "log10M"}, {"measurement": "Log10TGI50", "setting": "M14; M-14 (Melanoma), TGI: PG=0", "result": ">−4.00", "unit": "log10M"}, {"measurement": "Log10LC50", "setting": "OVCAR-8; OVCAR-8 (Ovarian Cancer), LC50: PG=−50", "result": ">−4.00", "unit": "log10M"}, {"measurement": "Log10TGI50", "setting": "OVCAR-8; OVCAR-8 (Ovarian Cancer), TGI: PG=0", "result": ">−4.00", "unit": "log10M"}, {"measurement": "Log10GI50", "setting": "OVCAR-8; Ovarian Cancer, OVCAR-8", "result": ">−4.00"}, {"measurement": "Log10LC50", "setting": "HL-60(TB); HL-60(TB) (Leukemia), LC50: PG=−50", "result": ">−4.00", "unit": "log10M"}, {"measurement": "Log10TGI50", "setting": "HL-60(TB); HL-60(TB) (Leukemia), TGI: PG=0", "result": ">−4.00", "unit": "log10M"}, {"measurement": "Log10GI50", "setting": "HL-60(TB); Leukemia, HL-60(TB)", "result": "−4.26"}]}
